Test results: patent publication US11382328B2, “Rapid drug discovery methods for pathogen inactivation” (priority 2019, dated 2022)

Tested on: E. coli strain W3110
Assay: Synergy assays: Biolog chemical sensitivity panels with Group IB metal, coefficient of drug interaction (CDI) from relative growth
Assay type: cell-based
Conditions: for CDI (coefficient of drug interaction), copper mixed with biocide: Copper (mM) section
[1] = 1st of 3 copper concentrations (value not shown), 1st of four biocide concentrations
[2] = 1st of 3 copper concentrations (value not shown), 3rd of four biocide concentrations
[3] = 1st of 3 copper concentrations (value not shown), 4th of four biocide concentrations
[4] = 2nd of 3 copper concentrations (value not shown), 1st of four biocide concentrations
[5] = 2nd of 3 copper concentrations (value not shown), 2nd of four biocide concentrations
[6] = 2nd of 3 copper concentrations (value not shown), 3rd of four biocide concentrations
[7] = 2nd of 3 copper concentrations (value not shown), 4th of four biocide concentrations
[8] = 3rd of 3 copper concentrations (value not shown), 1st of four biocide concentrations
[9] = 3rd of 3 copper concentrations (value not shown), 2nd of four biocide concentrations
[10] = 3rd of 3 copper concentrations (value not shown), 3rd of four biocide concentrations
[11] = 3rd of 3 copper concentrations (value not shown), 4th of four biocide concentrations
[12] = Gold section of Table 5, first of three gold concentrations (μM, value not given), biocide concentration 1 of 4
[13] = Gold section of Table 5, first of three gold concentrations (μM, value not given), biocide concentration 2 of 4
[14] = Gold section of Table 5, first of three gold concentrations (μM, value not given), biocide concentration 3 of 4
[15] = Gold section of Table 5, first of three gold concentrations (μM, value not given), biocide concentration 4 of 4
[16] = Gold section of Table 5, second of three gold concentrations (μM, value not given), biocide concentration 1 of 4
[17] = Gold section of Table 5, second of three gold concentrations (μM, value not given), biocide concentration 2 of 4
[18] = Gold section of Table 5, second of three gold concentrations (μM, value not given), biocide concentration 3 of 4
[19] = Gold section of Table 5, second of three gold concentrations (μM, value not given), biocide concentration 4 of 4
[20] = Gold section of Table 5, third of three gold concentrations (μM, value not given), biocide concentration 2 of 4
[21] = Gold section of Table 5, third of three gold concentrations (μM, value not given), biocide concentration 3 of 4
[22] = Gold section of Table 5, third of three gold concentrations (μM, value not given), biocide concentration 4 of 4
[23] = Silver 0.5 μM, 1st of four biocide concentrations, E. coli
[24] = Silver 0.5 μM, 2nd of four biocide concentrations, E. coli
[25] = Silver 0.5 μM, 3rd of four biocide concentrations, E. coli
[26] = Silver 0.5 μM, 4th of four biocide concentrations, E. coli
[27] = Silver 1.0 μM, 1st of four biocide concentrations, E. coli
[28] = Silver 1.0 μM, 2nd of four biocide concentrations, E. coli
[29] = Silver 1.0 μM, 3rd of four biocide concentrations, E. coli
[30] = Silver 1.0 μM, 4th of four biocide concentrations, E. coli
[31] = Silver 5.0 μM, 1st of four biocide concentrations, E. coli
[32] = Silver 5.0 μM, 2nd of four biocide concentrations, E. coli
[33] = Silver 5.0 μM, 3rd of four biocide concentrations, E. coli
[34] = Silver 0.5 μM, biocide concentration 4 of 4
[35] = Silver 1.0 μM, biocide concentration 4 of 4
[36] = Silver 5.0 μM, biocide concentration 4 of 4

Compound	CDI (coefficient of drug interaction), copper mixed with biocide [1]	CDI (coefficient of drug interaction), copper mixed with biocide [2]	CDI (coefficient of drug interaction), copper mixed with biocide [3]	CDI (coefficient of drug interaction), copper mixed with biocide [4]	CDI (coefficient of drug interaction), copper mixed with biocide [5]	CDI (coefficient of drug interaction), copper mixed with biocide [6]	CDI (coefficient of drug interaction), copper mixed with biocide [7]	CDI (coefficient of drug interaction), copper mixed with biocide [8]	CDI (coefficient of drug interaction), copper mixed with biocide [9]	CDI (coefficient of drug interaction), copper mixed with biocide [10]	CDI (coefficient of drug interaction), copper mixed with biocide [11]	CDI (coefficient of drug interaction) [12]	CDI (coefficient of drug interaction) [13]	CDI (coefficient of drug interaction) [14]	CDI (coefficient of drug interaction) [15]	CDI (coefficient of drug interaction) [16]	CDI (coefficient of drug interaction) [17]	CDI (coefficient of drug interaction) [18]	CDI (coefficient of drug interaction) [19]	CDI (coefficient of drug interaction) [20]	other results
CCCCCCCCCCCC[N+](C)(C)C.[Br-] [Dodecyltrimethyl NH4^+ Br^−]	1.20	1.51	Tox	1.02	1.04	Tox	Tox	0.77	0.73	1.63	Tox	0.96	1.00	0.95	Tox	0.96	0.94	1.11	Tox	1.14	CDI (coefficient of drug interaction) (Gold section of Table 5, third of three gold concentrations (μM, value not given), biocide concentration 1 of 4): 1.02; CDI (coefficient of drug interaction) [21]: 1.05; CDI (coefficient of drug interaction) [22]: Tox; CDI (coefficient of drug interaction), silver + biocide [23]: 0.63; CDI (coefficient of drug interaction), silver + biocide [24]: 0.91; CDI (coefficient of drug interaction), silver + biocide [25]: Tox; CDI (coefficient of drug interaction), silver + biocide [26]: Tox; CDI (coefficient of drug interaction), silver + biocide [27]: 1.00; CDI (coefficient of drug interaction), silver + biocide [28]: 1.04; CDI (coefficient of drug interaction), silver + biocide [29]: Tox; CDI (coefficient of drug interaction), silver + biocide [30]: Tox; CDI (coefficient of drug interaction), silver + biocide [31]: 0.59; CDI (coefficient of drug interaction), silver + biocide [32]: 0.47; CDI (coefficient of drug interaction), silver + biocide [33]: Tox; CDI (coefficient of drug interaction), silver + biocide (Silver 5.0 μM, 4th of four biocide concentrations, E. coli): Tox
CCn1cc(C(=O)O)c(=O)c2cc(F)c(N3CCNCC3)cc21 [norfloxacin]	–	–	–	–	–	–	–	–	–	–	–	–	–	–	–	–	–	–	–	–	CDI (coefficient of drug interaction) (Gold 50 μM, biocide concentration 4 of 4, E. coli): Tox
Nc1nc[nH]n1 [3-Amino-1,2,4-triazole]	–	–	Tox	–	–	–	–	–	–	–	Tox	–	–	–	Tox	–	–	–	Tox	–	CDI (coefficient of drug interaction) [22]: Tox; CDI [34]: Tox; CDI [35]: Tox; CDI [36]: Tox
NCC[C@H](O)C(=O)N[C@@H]1C[C@H](N)[C@@H](O[C@H]2O[C@H](CN)[C@@H](O)[C@H](O)[C@H]2O)[C@H](O)[C@H]1O[C@H]1O[C@H](CO)[C@@H](O)[C@H](N)[C@H]1O [amikacin]	–	–	–	–	–	–	–	–	–	–	–	–	–	–	–	–	–	–	–	–	cell toxicity / growth curves with and without silver: enhanced cell toxicity
N.N.N.N.N.N.[Cl-].[Cl-].[Cl-].[Co+3] [hexammine cobalt (III) chloride]	1.06	1.19	1.51	0.93	1.05	1.05	1.59	0.94	0.90	0.73	0.87	–	–	–	–	–	–	–	–	–	CDI (coefficient of drug interaction) (Gold 5 μM, biocide concentration 1 of 4, E. coli): 1.09; CDI (coefficient of drug interaction) (Gold 5 μM, biocide concentration 4 of 4, E. coli): 1.10; CDI (coefficient of drug interaction) (Gold 25 μM, biocide concentration 1 of 4, E. coli): 1.09; CDI (coefficient of drug interaction) (Gold 25 μM, biocide concentration 3 of 4, E. coli): 1.08; CDI (coefficient of drug interaction) (Gold 25 μM, biocide concentration 4 of 4, E. coli): 1.25; CDI (coefficient of drug interaction), silver + biocide [23]: 0.98; CDI (coefficient of drug interaction), silver + biocide [24]: 1.05; CDI (coefficient of drug interaction), silver + biocide [25]: 0.97; CDI (coefficient of drug interaction), silver + biocide [26]: 0.82; CDI (coefficient of drug interaction), silver + biocide [27]: 0.98; CDI (coefficient of drug interaction), silver + biocide [28]: 1.03; CDI (coefficient of drug interaction), silver + biocide [29]: 1.04; CDI (coefficient of drug interaction), silver + biocide [30]: 0.39; CDI (coefficient of drug interaction), silver + biocide [31]: 1.26; CDI (coefficient of drug interaction), silver + biocide [32]: 1.43; CDI (coefficient of drug interaction), silver + biocide [33]: 1.00; CDI (coefficient of drug interaction) ([…], biocide concentration 3 of 4, E. coli): 1.25; CDI (coefficient of drug interaction) ([…], biocide concentration 4 of 4, E. coli): 1.62
gentamicin	0.89	0.79	0.86	0.78	0.80	0.74	1.54	0.61	0.59	0.58	0.61	0.97	1.00	0.99	–	0.97	0.99	1.00	1.00	0.97	CDI (coefficient of drug interaction), copper mixed with biocide (1st of 3 copper concentrations (value not shown), 2nd of four biocide concentrations): 0.87; CDI (coefficient of drug interaction) [21]: 1.00; CDI (Silver 0.5 μM, biocide concentration 1 of 4): 0.87; CDI (Silver 0.5 μM, biocide concentration 2 of 4): 0.86; CDI (Silver 0.5 μM, biocide concentration 3 of 4): 0.81; CDI [34]: 0.79; CDI (Silver 1.0 μM, biocide concentration 2 of 4): 0.98; CDI (Silver 1.0 μM, biocide concentration 3 of 4): 0.42; CDI [35]: 0.38; CDI (Silver 5.0 μM, biocide concentration 1 of 4): 1.00; CDI (Silver 5.0 μM, biocide concentration 2 of 4): 0.82; CDI (Silver 5.0 μM, biocide concentration 3 of 4): 0.74; CDI [36]: 0.34
